{
  "source": "patent US6579900B2",
  "about": "“Anandamide amidase inhibitors as analgesic agents” (priority 1996, dated 2003)",
  "key": {"anandamide amidase [1]": {"target": "T1, anandamide amidase (Rattus norvegicus, UniProt P97612)", "T1 construct": "Crude rat brain homogenate was obtained by decapitating female adult Sprague-Dawley rats, dissecting the desired tissue and homogenizing; from tissue; host or cells: crude brain homogenate of female adult Sprague-Dawley rats", "T1 sequence (P97612 1-579)": "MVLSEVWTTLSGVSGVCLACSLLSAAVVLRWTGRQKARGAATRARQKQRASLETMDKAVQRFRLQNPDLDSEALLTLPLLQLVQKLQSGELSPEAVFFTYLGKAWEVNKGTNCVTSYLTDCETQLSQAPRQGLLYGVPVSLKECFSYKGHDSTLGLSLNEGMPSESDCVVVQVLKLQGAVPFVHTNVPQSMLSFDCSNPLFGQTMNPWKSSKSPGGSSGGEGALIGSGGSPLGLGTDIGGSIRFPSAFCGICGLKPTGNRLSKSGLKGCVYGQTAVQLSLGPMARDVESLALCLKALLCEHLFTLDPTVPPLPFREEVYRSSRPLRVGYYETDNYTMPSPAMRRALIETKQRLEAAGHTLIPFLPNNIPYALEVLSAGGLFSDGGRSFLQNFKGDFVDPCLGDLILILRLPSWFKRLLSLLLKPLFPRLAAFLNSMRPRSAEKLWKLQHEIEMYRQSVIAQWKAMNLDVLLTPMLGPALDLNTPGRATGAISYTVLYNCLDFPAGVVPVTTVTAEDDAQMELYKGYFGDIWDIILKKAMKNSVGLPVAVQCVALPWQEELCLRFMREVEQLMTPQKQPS", "assay": "Anandamide amidase assay in vitro, crude rat brain homogenate", "type": "biochemical", "procedure": "The assay of the anandamide amidase in vitro was performed as described previously (Deutsch, D. G. and S. A. Chin, Biochem. Pharmacol. 46:791-796 (1993)). The indicated amount of each compound was preincubated in a buffer consisting of 300 μg of crude rat brain homogenate protein, 500 μg/ml fatty acid-free bovine serum albumin, in phosphate-buffered saline in a final volume of 1.0 ml, for 10 minutes at 37° C. Crude rat brain homogenate was obtained by decapitating female adult Sprague-Dawley rats, dissecting the desired tissue and homogenizing in five volumes of ice-cold TE (10 mM Tris-HCl, 1 mM EDTA, pH 7.6). Substrate (27.7 μM anandamide+0.2 μCi of 221 Ci/mmol [^3H]anandamide ([arachidonyl-5,6,8,9,11,12,14,15-^3H]ethanolamide)) (obtained from the National Institute on Drug Abuse) was then added and the samples incubated for 10 minutes. The reaction was quenched by the addition of chloroform:methanol (1:1) and enzyme activity was analyzed by TLC as described in Example 1."}, "anandamide amidase [2]": {"target": "T2, anandamide amidase (Mus musculus, UniProt O08914)", "T2 construct": "The assay of the anandamide amidase in intact neuroblastoma cells; endogenous in cells; host or cells: N18TG2 neuroblastoma cells", "T2 sequence (O08914 1-579)": "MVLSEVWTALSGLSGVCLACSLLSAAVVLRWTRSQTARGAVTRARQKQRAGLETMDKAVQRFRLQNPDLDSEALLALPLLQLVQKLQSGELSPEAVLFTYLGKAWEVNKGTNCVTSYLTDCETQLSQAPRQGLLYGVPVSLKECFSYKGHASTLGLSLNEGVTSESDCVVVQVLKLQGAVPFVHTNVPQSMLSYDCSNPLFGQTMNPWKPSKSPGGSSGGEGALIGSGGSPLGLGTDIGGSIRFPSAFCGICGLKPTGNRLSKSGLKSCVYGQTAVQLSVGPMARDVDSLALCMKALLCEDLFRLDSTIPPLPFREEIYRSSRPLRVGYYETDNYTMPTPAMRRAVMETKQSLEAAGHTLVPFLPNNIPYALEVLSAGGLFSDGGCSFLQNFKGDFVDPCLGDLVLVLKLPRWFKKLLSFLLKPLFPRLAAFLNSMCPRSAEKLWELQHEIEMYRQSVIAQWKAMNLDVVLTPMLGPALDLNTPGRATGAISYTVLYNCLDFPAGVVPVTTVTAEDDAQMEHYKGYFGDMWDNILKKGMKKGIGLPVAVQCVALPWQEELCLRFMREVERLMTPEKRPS", "assay": "Anandamide amidase assay in intact neuroblastoma cells ([3H]anandamide levels)", "type": "cell-based", "description": "The experiments were performed with 4×10^6 neuroblastoma cells (N18TG2)/6-cm dish. Experimental cells were incubated in 2 ml of media, consisting of Ham's F-12/Dulbecco's modified Eagle's medium (Life Technologies, Inc.) with penicillin, streptomycin, and gentamicin plus 10% bovine calf serum (HyClone, Logan, Utah), plus the indicated concentration of inhibitor for 20 minutes. All cells were grown at 37° in a humidified atmosphere containing 5% CO2 in air. [^3H]Anandamide (0.2 μCi of 221 Ci/mmol of [^3H]anandamide) was added and the incubation continued for 1 hour. Control cells contained no inhibitor. At the end of the incubation, the cells were washed once with cell culture media and removed from the plates, after a brief incubation with 2 ml of 0.05% trypsin in 0.53 mM EDTA solution at 37° C. The amounts of [^3H]anandamide, [^3H]phospholipids, and [^3H]arachidonate in the cells and media were quantified by liquid scintillation counting of the silica scraped from the appropriate areas of the plate after quenching the reaction with chloroform methanol (1:1), extraction of the sample from the organic phase, and TLC analysis on channeled silica gel-coated plates, with a solvent system consisting of the organic layer of an ethyl acetate:hexane:acetic acid:water (100:50:20:100) mixture."}, "male MF1 mice": {"test_system": "male MF1 mice", "assay": "Tail flick test of analgesia (\"rat flick test\")", "settings": "mouse, in vivo"}, "CB1 receptor": {"target": "T3, CB1 receptor (Rattus norvegicus, UniProt P20272)", "T3 construct": "brain membranes were prepared from frozen rat brains; from tissue; host or cells: membranes from frozen rat brains", "T3 sequence (P20272 whole entry)": "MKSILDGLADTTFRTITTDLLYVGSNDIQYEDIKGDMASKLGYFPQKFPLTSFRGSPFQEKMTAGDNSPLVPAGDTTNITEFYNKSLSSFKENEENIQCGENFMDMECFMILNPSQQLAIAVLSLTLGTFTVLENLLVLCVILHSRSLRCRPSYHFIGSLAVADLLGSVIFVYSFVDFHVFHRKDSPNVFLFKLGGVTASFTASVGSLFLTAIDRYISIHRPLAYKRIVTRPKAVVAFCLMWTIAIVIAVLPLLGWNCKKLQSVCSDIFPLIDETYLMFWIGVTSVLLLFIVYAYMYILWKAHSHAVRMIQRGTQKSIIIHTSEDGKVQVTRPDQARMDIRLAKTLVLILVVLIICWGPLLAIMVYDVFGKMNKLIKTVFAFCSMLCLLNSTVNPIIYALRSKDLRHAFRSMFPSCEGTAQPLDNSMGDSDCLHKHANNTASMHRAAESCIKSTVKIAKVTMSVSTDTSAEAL", "settings": "rat brain membranes, FIG. 3; read-out: Ki in competition with [3H]CP-55940 binding to CB1", "description": "The filters were treated with 0.1% sodium dodecyl sulfate prior to addition of scintillation mixture and counting in a liquid scintillation counter."}, "[3]": {"settings": "crude rat brain homogenate, 10 min preincubation at 37° C., read-out: IC50 for inhibition of anandamide amidase"}},
  "note": "Read-outs that look alike come from different tables or passages of the source.",
  "data": [
    {"compound": "CCCCCCCCCCCCCCCCCCCCS(=O)(=O)F", "note": "[Arachidylsulfonyl fluoride, arachidylsulfonyl fluoride]", "values": [
      {"measurement": "concentration at which effective inhibitor of anandamide amidase", "setting": "anandamide amidase [1]; crude rat brain homogenate", "value": "less than 100 nM"}
    ]},
    {"compound": "CCCCCCCCCCCCS(=O)(=O)F", "note": "[laurylsulfonyl fluoride]", "values": [
      {"measurement": "IC50", "setting": "anandamide amidase [1]; [3]", "value": "< 0.01", "unit": "µM"}
    ]},
    {"compound": "CCCCCCCCCCCCCCS(=O)(=O)F", "note": "[myristylsulfonyl fluoride]", "values": [
      {"measurement": "IC50", "setting": "anandamide amidase [1]; [3]", "value": "< 0.01", "unit": "µM"}
    ]},
    {"compound": "CCCCCCCCCCCCCCCCS(=O)(=O)F", "note": "[palmitylsulfonyl fluoride]", "values": [
      {"measurement": "increase of the level of undegraded anandamide", "setting": "anandamide amidase [2]; 10 nM inhibitor, intact neuroblastoma cells (N18TG2)", "value": 55, "unit": "fold"},
      {"measurement": "IC50", "setting": "anandamide amidase [1]", "value": "< 0.01", "unit": "µM"},
      {"measurement": "analgesia (in words)", "setting": "male MF1 mice", "value": "induce analgesia"}
    ]},
    {"compound": "O=S(=O)(F)Cc1ccccc1", "note": "[phenylmethylsulfonyl fluoride, reference compound]", "values": [
      {"measurement": "concentration required to achieve comparable levels of anandamide amidase inhibition", "setting": "anandamide amidase [2]; comparable to over 50% of radioactivity in anandamide, N18TG2 cells", "value": "greater than 10 micromolar"}
    ]},
    {"compound": "CCCCCCCCCCCCCCCCCCS(=O)(=O)F", "note": "[stearylsulfonyl fluoride]", "values": [
      {"measurement": "IC50", "setting": "anandamide amidase [1]; [3]", "value": "< 0.01", "unit": "µM"}
    ]},
    {"compound": "arachidonyl trifluoromethyl ketone", "values": [
      {"measurement": "Ki", "setting": "CB1 receptor", "value": 1.32, "unit": "µM"}
    ]}
  ]
}
